Where two headings read alike, the source gives them in different places.
Test system: test plant species
Experiment: Post-emergent herbicidal activity test (greenhouse, foliar spray, visual growth reduction)
Assay type: in vivo
Settings: post-emergence, 336 h, 140 g ai/ha
Procedure, shortened: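 Plants grown in greenhouse (15 h photoperiod, 23-29° C day/22-28° C night) to first or second true leaf stage were sprayed overhead with compound in acetone/water/isopropanol/DMSO/crop oil/X-77 carrier at 187 L/ha. Injury was scored visually after 14 d on a 0-100% scale versus solvent-blank and untreated controls.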

[1] = ECHCG: barnyardgrass (Echinochloa crus-galli), 14 days after application, read-out: Visual Growth Reduction (%) 14 Days After Application, ECHCG
[2] = IPOHE: ivy-leaf morning glory (Ipomoea hederacea), 14 days after application, read-out: Visual Growth Reduction (%) 14 Days After Application, IPOHE
[3] = KCHSC: kochia (Bassia scoparia), 14 days after application, read-out: Visual Growth Reduction (%) 14 Days After Application, KCHSC
[4] = ORYSA: rice (Oryza sativa), 14 days after application, read-out: Visual Growth Reduction (%) 14 Days After Application, ORYSA
[5] = SETFA: giant foxtail (Setaria faberi), 14 days after application, read-out: Visual Growth Reduction (%) 14 Days After Application, SETFA
[6] = SORVU: grain sorghum (Sorghum vulgare), 14 days after application, read-out: Visual Growth Reduction (%) 14 Days After Application, SORVU
[7] = STEME: common chickweed (Stellaria media), 14 days after application, read-out: Visual Growth Reduction (%) 14 Days After Application, STEME
[8] = TRZAS: wheat, spring (Triticum aestivum), 14 days after application, read-out: Visual Growth Reduction (%) 14 Days After Application, TRZAS
[9] = blackgrass (Alopecurus myosuroides), 14 Days After Application, read-out: Visual Growth Reduction (%) ALOMY
[10] = canada thistle (Cirsium arvense), 14 Days After Application, read-out: Visual Growth Reduction (%) CIRAR
[11] = crabgrass (Digitaria sanguinalis), 14 Days After Application, read-out: Visual Growth Reduction (%) DIGSA
[12] = lambsquarters (Chenopodium album), 14 Days After Application, read-out: Visual Growth Reduction (%) CHEAL
[13] = redroot pigweed (Amaranthus retroflexus), 14 Days After Application, read-out: Visual Growth Reduction (%) AMARE
[14] = wild oat (Avena fatua), 14 Days After Application, read-out: Visual Growth Reduction (%) AVEFA
[15] = yellow nutsedge (Cyperus esculentus), 14 Days After Application, read-out: Visual Growth Reduction (%) CYPES

Structure (SMILES)	pest or weed control at 140 g/ha [1] [%]	pest or weed control at 140 g/ha [2] [%]	pest or weed control at 140 g/ha [3] [%]	pest or weed control at 140 g/ha [4] [%]	pest or weed control at 140 g/ha [5] [%]	pest or weed control at 140 g/ha [6] [%]	pest or weed control at 140 g/ha [7] [%]	pest or weed control at 140 g/ha [8] [%]	pest or weed control at 140 g/ha [9] [%]	pest or weed control at 140 g/ha [10] [%]	pest or weed control at 140 g/ha [11] [%]	pest or weed control at 140 g/ha [12] [%]	pest or weed control at 140 g/ha [13] [%]	pest or weed control at 140 g/ha [14] [%]	pest or weed control at 140 g/ha [15] [%]
Cc1cc(C(F)(F)F)ccc1-c1nc(C(=O)O)c(Cl)cc1F [F267, 3-Chloro-5-fluoro-6-(2-methyl-4-(trifluoromethyl)phenyl) picolinic acid]	75 to 84	95 to 100	60 to 74	0 to 29	85 to 94	95 to 100	0 to 29	60 to 74	30 to 44	85 to 94	85 to 94	95 to 100	95 to 100	45 to 59	0 to 29
COC(=O)c1nc(-c2ccc(F)cc2F)ccc1Cl [F268, Methyl 3-chloro-6-(2,4-difluorophenyl) picolinate]	0 to 29	0 to 29	0 to 29	0 to 29	0 to 29	60 to 74	0 to 29	0 to 29	0 to 29	30 to 44	0 to 29	60 to 74	0 to 29	0 to 29	0 to 29
COC(=O)c1nc(-c2ccc(OC)nc2)ccc1Cl [F269, Methyl 5-chloro-6′-methoxy-[2,3′-bipyridine]-6-carboxylate]	0 to 29	0 to 29	30 to 44	0 to 29	0 to 29	0 to 29	0 to 29	0 to 29	0 to 29	30 to 44	0 to 29	0 to 29	0 to 29	0 to 29	0 to 29
COC(=O)c1nc(-c2ccc(Cl)cc2F)ccc1Cl [F270, Methyl 3-chloro-6-(4-chloro-2-fluorophenyl) picolinate]	0 to 29	95 to 100	75 to 84	0 to 29	0 to 29	85 to 94	30 to 44	45 to 59	0 to 29	75 to 84	85 to 94	85 to 94	45 to 59	0 to 29	45 to 59
COC(=O)c1nc(-c2cc(Cl)c(C)cc2F)ccc1Cl [F271, Methyl 3-chloro-6-(5-chloro-2-fluoro-4-methylphenyl) picolinate]	0 to 29	0 to 29	0 to 29	0 to 29	0 to 29	0 to 29	0 to 29	0 to 29	0 to 29	0 to 29	0 to 29	60 to 74	0 to 29	0 to 29	0 to 29

From patent US20230017045A1, “PYRIDINE AND PYRIMIDINE CARBOXYLATE HERBICIDES AND METHODS OF USE THEREOF” (Dow AgroSciences LLC, priority 2017, published 2023)
